Test results reported in US20260007599A1, “TICAGRELOR IV FORMULATIONS FOR USE IN THE TREATMENT OF GRAM-POSITIVE BACTEREMIA” (Hyloris Developments SA, priority 2023, published 2026).
Marks after values point to notes of the source that are not given here.

Columns and labels:
[1] = Physical stability and diluent tests of ticagrelor 5 mg/ml batches with varying HPβCD; assay type: physicochemical; details: for Appearance in 5% dextrose / Appearance in NaCl 0.9%: diluted to ticagrelor 0.1 mg/ml; for Appearance, undiluted: ticagrelor 5 mg/ml
Method: 5 mg/ml ticagrelor-cyclodextrin solutions with varying amounts of HPβCD were diluted with normal saline, 5% dextrose solution or Ringer's lactate solution. The stability was screened. The ticagrelor concentration when diluted into dextrose or saline was 0.1 mg/ml.

[2] = test system: glycopeptide intermediate Staphylococcus aureus (GISA); details: ex-vivo; cited from earlier work
[3] = test system: Methicillin sensitive Staphylococcus aureus (MSSA); details: ex-vivo; cited from earlier work
[4] = Solubilization of ticagrelor in unbuffered cyclodextrin stock solutions in milli Q water, appearance on shaking platform; assay type: physicochemical;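 further: plus means clear and fully dissolved while plus-minus means clear solution with precipitation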
Method: In a first example two different types of cyclodextrin were used and compared for the solubilization of ticagrelor. An unbuffered stock solution of HPBCD or SBECD was made in water at the target concentrations of 20 w/w %, 25 w/w %, 30 w/w %, 35 w/w % and 40 w/w %. Ticagrelor was added slowly under vortex. Ticagrelor was used at concentrations of 5, 10 or 14 mg/ml in milli Q water. The ticagrelor-cyclodextrin solutions were left on a shaking platform. No sonification or heat was applied.

SMILES: CCCSc1nc(N[C@@H]2C[C@H]2c2ccc(F)c(F)c2)c2nnn([C@@H]3C[C@H](OCCO)[C@@H](O)[C@H]3O)c2n1 [ticagrelor, (1S,2S,3R,5S)-3-{7-[(1R,2S)-2-(3,4-difluorophenyl)cyclopropylamino]5-(propylthio)-3H-(1,2,3)triazolo (4,5-D)pyrimidin-3-yl}-5-(2 hydroxyethoxy) cyclopentane-1,2-diol]
- ticagrelor concentration that could be dissolved ([1]; HPβCD 20-40% w/w, without the use of heat): 5 to 15 mg/mL
- Appearance in 5% dextrose ([1]; HPβCD 22.5% w/w): Clear solution
- Appearance in NaCl 0.9% ([1]; HPβCD 22.5% w/w): Turbid
- Appearance in 5% dextrose ([1]; HPβCD 25.0% w/w): Clear solution
- Appearance in NaCl 0.9% ([1]; HPβCD 25.0% w/w): Turbid
- Appearance in 5% dextrose ([1]; HPβCD 27.5% w/w): Clear solution
- Appearance in NaCl 0.9% ([1]; HPβCD 27.5% w/w): Turbid
- Appearance in 5% dextrose ([1]; HPβCD 30.0% w/w): Clear solution
- Appearance in NaCl 0.9% ([1]; HPβCD 30.0% w/w): Turbid
- Appearance in 5% dextrose ([1]; HPβCD 32.5% w/w): Clear solution
- Appearance in NaCl 0.9% ([1]; HPβCD 32.5% w/w): Clear solution
- stability of undiluted concentrate ([1]; in the refrigerator, HPβCD concentration as low as 22.5% w/w): remained stable
- Appearance, undiluted ([1]; HPβCD 30.0% w/w): Clear solution
- Appearance, undiluted ([1]; HPβCD 32.5% w/w): Clear solution
- minimal bactericidal concentration [2]: 20 microgram/ml
- minimal bactericidal concentration [3]: 20 microgram/ml
- Appearance in cyclodextrin ([4]; HPβCD 20% w/w, ticagrelor 5 mg/ml, after 5 min of shaking): − (translucent solution with precipitation)
- Appearance in cyclodextrin ([4]; HPβCD 20% w/w, ticagrelor 5 mg/ml, after 30 min of shaking): +/−
- Appearance in cyclodextrin ([4]; HPβCD 20% w/w, ticagrelor 5 mg/ml, after 60 min of shaking): +/−
- Appearance in cyclodextrin ([4]; HPβCD 20% w/w, ticagrelor 5 mg/ml, after 3 h of shaking): +/−
- Appearance in cyclodextrin ([4]; HPβCD 20% w/w, ticagrelor 5 mg/ml, after overnight shaking): − (translucent solution with precipitation)
- Appearance in cyclodextrin ([4]; HPβCD 20% w/w, ticagrelor 10 mg/ml, after 5 min of shaking): − (translucent solution with precipitation)
- Appearance in cyclodextrin ([4]; HPβCD 20% w/w, ticagrelor 10 mg/ml, after 30 min of shaking): − (translucent solution with precipitation)
- Appearance in cyclodextrin ([4]; HPβCD 20% w/w, ticagrelor 10 mg/ml, after 60 min of shaking): − (translucent solution with precipitation)
- Appearance in cyclodextrin ([4]; HPβCD 20% w/w, ticagrelor 10 mg/ml, after 3 h of shaking): − (translucent solution with precipitation)
- Appearance in cyclodextrin ([4]; HPβCD 20% w/w, ticagrelor 10 mg/ml, after overnight shaking): − (translucent solution with precipitation)
- Appearance in cyclodextrin ([4]; HPβCD 20% w/w, ticagrelor 14 mg/ml, after 5 min of shaking): − (translucent solution with precipitation)
- Appearance in cyclodextrin ([4]; HPβCD 20% w/w, ticagrelor 14 mg/ml, after 30 min of shaking): − (translucent solution with precipitation)
- Appearance in cyclodextrin ([4]; HPβCD 20% w/w, ticagrelor 14 mg/ml, after 60 min of shaking): − (translucent solution with precipitation)
- Appearance in cyclodextrin ([4]; HPβCD 20% w/w, ticagrelor 14 mg/ml, after 3 h of shaking): − (translucent solution with precipitation)
- Appearance in cyclodextrin ([4]; HPβCD 20% w/w, ticagrelor 14 mg/ml, after overnight shaking): − (translucent solution with precipitation)
- Appearance in cyclodextrin ([4]; HPβCD 25% w/w, ticagrelor 5 mg/ml, after 5 min of shaking): − (translucent solution with precipitation)
- Appearance in cyclodextrin ([4]; HPβCD 25% w/w, ticagrelor 5 mg/ml, after 30 min of shaking): +/−
- Appearance in cyclodextrin ([4]; HPβCD 25% w/w, ticagrelor 5 mg/ml, after 60 min of shaking): +/−
- Appearance in cyclodextrin ([4]; HPβCD 25% w/w, ticagrelor 5 mg/ml, after 3 h of shaking): +/−
- Appearance in cyclodextrin ([4]; HPβCD 25% w/w, ticagrelor 5 mg/ml, after overnight shaking, after one hour of sonication): +* (clear, appeared completely dissolved)
- Appearance in cyclodextrin ([4]; HPβCD 25% w/w, ticagrelor 10 mg/ml, after 5 min of shaking): − (translucent solution with precipitation)
- Appearance in cyclodextrin ([4]; HPβCD 25% w/w, ticagrelor 10 mg/ml, after 30 min of shaking): − (translucent solution with precipitation)
- Appearance in cyclodextrin ([4]; HPβCD 25% w/w, ticagrelor 10 mg/ml, after 60 min of shaking): − (translucent solution with precipitation)
- Appearance in cyclodextrin ([4]; HPβCD 25% w/w, ticagrelor 10 mg/ml, after 3 h of shaking): − (translucent solution with precipitation)
- Appearance in cyclodextrin ([4]; HPβCD 25% w/w, ticagrelor 10 mg/ml, after overnight shaking): − (translucent solution with precipitation)
- Appearance in cyclodextrin ([4]; HPβCD 25% w/w, ticagrelor 14 mg/ml, after 5 min of shaking): − (translucent solution with precipitation)
- Appearance in cyclodextrin ([4]; HPβCD 25% w/w, ticagrelor 14 mg/ml, after 30 min of shaking): − (translucent solution with precipitation)
- Appearance in cyclodextrin ([4]; HPβCD 25% w/w, ticagrelor 14 mg/ml, after 60 min of shaking): − (translucent solution with precipitation)
- Appearance in cyclodextrin ([4]; HPβCD 25% w/w, ticagrelor 14 mg/ml, after 3 h of shaking): − (translucent solution with precipitation)
- Appearance in cyclodextrin ([4]; HPβCD 25% w/w, ticagrelor 14 mg/ml, after overnight shaking): − (translucent solution with precipitation)
- Appearance in cyclodextrin ([4]; HPβCD 30% w/w, ticagrelor 5 mg/ml, after 5 min of shaking): − (translucent solution with precipitation)
- Appearance in cyclodextrin ([4]; HPβCD 30% w/w, ticagrelor 5 mg/ml, after 30 min of shaking): +/−
- Appearance in cyclodextrin ([4]; HPβCD 30% w/w, ticagrelor 5 mg/ml, after 60 min of shaking): +/−
- Appearance in cyclodextrin ([4]; HPβCD 30% w/w, ticagrelor 5 mg/ml, after 3 h of shaking): +/−
- Appearance in cyclodextrin ([4]; HPβCD 30% w/w, ticagrelor 5 mg/ml, after overnight shaking): + (clear, appeared completely dissolved)
- Appearance in cyclodextrin ([4]; HPβCD 30% w/w, ticagrelor 10 mg/ml, after 5 min of shaking): − (translucent solution with precipitation)
- Appearance in cyclodextrin ([4]; HPβCD 30% w/w, ticagrelor 10 mg/ml, after 30 min of shaking): − (translucent solution with precipitation)
- Appearance in cyclodextrin ([4]; HPβCD 30% w/w, ticagrelor 10 mg/ml, after 60 min of shaking): − (translucent solution with precipitation)
- Appearance in cyclodextrin ([4]; HPβCD 30% w/w, ticagrelor 10 mg/ml, after 3 h of shaking): − (translucent solution with precipitation)
- Appearance in cyclodextrin ([4]; HPβCD 30% w/w, ticagrelor 10 mg/ml, after overnight shaking): − (translucent solution with precipitation)
- Appearance in cyclodextrin ([4]; HPβCD 30% w/w, ticagrelor 14 mg/ml, after 5 min of shaking): − (translucent solution with precipitation)
- Appearance in cyclodextrin ([4]; HPβCD 30% w/w, ticagrelor 14 mg/ml, after 30 min of shaking): − (translucent solution with precipitation)
- Appearance in cyclodextrin ([4]; HPβCD 30% w/w, ticagrelor 14 mg/ml, after 60 min of shaking): − (translucent solution with precipitation)
- Appearance in cyclodextrin ([4]; HPβCD 30% w/w, ticagrelor 14 mg/ml, after 3 h of shaking): − (translucent solution with precipitation)
